The values below come from ChEMBL document CHEMBL1142271, “New fused benzazepine as selective D3 receptor antagonists. Synthesis and biological evaluation. Part one: [h]-fused tricyclic systems” (Bioorg Med Chem Lett, 2008).

For orientation: clearance means the volume of plasma or blood freed of the substance per unit of time. A higher clearance goes with efficient removal. What is called half-life is the time in which the quantity being followed falls by half. The low end stands for rapid decline, the high end for slow decline. By Vd is commonly meant a proportionality between amount in the body and measured concentration, not a real space. High values mean extensive tissue distribution, low ones confinement near the circulation. Usually bioavailability stands for the share of a dose that reaches the circulation, judged against a reference dose that is usually intravenous. A higher bioavailability goes with good availability.

Type in all cases: ADME, organism-based
Data set [1] in a line: Blood clearance in rat. The following applies: whole blood.
Data set [2] in a line: Half life in rat. The following applies: in vivo.
A short description of data set [3]: Volume of distribution in rat. The conditions noted are these: in vivo.
Data set [4] is described as follows: Oral bioavailability in rat. The conditions noted are these: in vivo.
Data set [5] can be described thus: Ratio of drug level brain to blood in iv dosed rat after 1 hr. The conditions noted are these: read-out: BBR.

Each structure is given as a SMILES string.

In turn, `Cc1ccc2c(-c3nnc(SCCCN4CCc5cc6c(cc5CC4)C(=O)N(C(C)C)C6)n3C)cccc2n1` came in with a clearance in data set [1] of 36 mL/min/kg. In data set [2], this molecule showed a half-life of 1.5 h. This molecule also had a Vd in data set [3] of 3.5 L/kg. Further, the bioavailability in data set [4] is 10%. Further, the Kp at 1 h in data set [5] is 0.2.

On to `Cc1ccc2c(-c3nnc(SCCCN4CCc5cc6nc(C)oc6cc5CC4)n3C)cccc2n1`, for which the clearance in data set [1] stood at 47 mL/min/kg. The half-life in data set [2] is 1.7 h. In addition, the Vd in data set [3] was found to be 4.31 L/kg. Moreover, in data set [4], the bioavailability turned out to be 34%. The Kp at 1 h in data set [5] stood at 5.4.

As for `Cc1ncoc1-c1nnc(SCCCN2CCc3cc4nc(C(C)C)oc4cc3CC2)n1C`, in data set [1], the clearance amounted to 152 mL/min/kg.

For the molecule `Cc1ccc2c(-c3nnc(SCCCN4CCc5cc6nc(N7CCCCC7)oc6cc5CC4)n3C)cccc2n1`, in data set [1], the clearance was found to be 76 mL/min/kg. The molecule also returned a bioavailability in data set [4] of 3%. Further, the Kp at 1 h in data set [5] was determined as 5.1.

`CCCc1nc2cc3c(cc2o1)CCN(CCCSc1nnc(-c2cccc4nc(C)ccc24)n1C)CC3`: the clearance in data set [1] is 62 mL/min/kg. In addition, the bioavailability in data set [4] was found to be 6%.

In turn, `Cc1ccc2c(-c3nnc(SCCCN4CCc5cc6nc(C(F)(F)F)oc6cc5CC4)n3C)cccc2n1` came in with a clearance in data set [1] of 20 mL/min/kg. Also, the half-life in data set [2] is 3.3 h. This molecule displayed a Vd in data set [3] of 5 L/kg. Also, the bioavailability in data set [4] stood at 31%. The Kp at 1 h in data set [5] came out at 2.8.

`Cc1nc2cc3c(cc2o1)CCN(CCCSc1nnc(-c2ccc(C(F)(F)F)cc2)n1C)CC3` returned a clearance in data set [1] of 62 mL/min/kg. The molecule further showed a half-life in data set [2] of 1.5 h. This molecule also registered a Vd in data set [3] of 5.4 L/kg. The molecule also had a bioavailability in data set [4] of 17%. Moreover, the Kp at 1 h in data set [5] is 2.9.

In data set [1], `Cc1ccc2c(-c3nnc(SCCCN4CCc5cc6nc(N(C)C)oc6cc5CC4)n3C)cccc2n1` yielded a clearance of 29 mL/min/kg. The half-life in data set [2] was 1.6 h. This molecule came in with a Vd in data set [3] of 2.8 L/kg. The molecule further showed a bioavailability in data set [4] of 45%. Further, the Kp at 1 h in data set [5] was found to be 1.1.

For `Cc1ccc2c(-c3nnc(SCCCN4CCc5cc6nc(C(C)C)oc6cc5CC4)n3C)cccc2n1`, the clearance in data set [1] amounted to 81 mL/min/kg.

`CCc1nc2cc3c(cc2o1)CCN(CCCSc1nnc(-c2cccc4nc(C)ccc24)n1C)CC3` came in with a clearance in data set [1] of 57 mL/min/kg. Also, the half-life in data set [2] is 1.6 h. Besides, the Vd in data set [3] is 5.1 L/kg. The molecule also had a bioavailability in data set [4] of 31%.

In data set [1], `Cc1ccc2c(-c3nnc(SCCCN4CCc5cc6nc(CC7CC7)oc6cc5CC4)n3C)cccc2n1` gave a clearance of 50 mL/min/kg. In data set [3], this molecule displayed a Vd of 4.3 L/kg. Also, the bioavailability in data set [4] turned out to be 25%.

In data set [1], `Cc1ccc2c(-c3nnc(SCCCN4CCc5cc6c(cc5CC4)N(S(C)(=O)=O)CCO6)n3C)cccc2n1` displayed a clearance of 32 mL/min/kg. This molecule also gave a half-life in data set [2] of 1.2 h. In data set [3], this molecule yielded a Vd of 2.4 L/kg. Moreover, the Kp at 1 h in data set [5] turned out to be 0.2.

As for `Cc1ccc2c(-c3nnc(SCCCN4CCc5cc6nc(C)sc6cc5CC4)n3C)cccc2n1`, the clearance in data set [1] amounted to 34 mL/min/kg. The same molecule gave a half-life in data set [2] of 2.2 h. This molecule yielded a Vd in data set [3] of 4.3 L/kg. In addition, the bioavailability in data set [4] was found to be 25%. Also, in data set [5], the Kp at 1 h is 4.4.

Regarding `Cc1ncoc1-c1nnc(SCCCN2CCc3cc4nc(CC5CC5)oc4cc3CC2)n1C`, the clearance in data set [1] is 26 mL/min/kg. In addition, the Vd in data set [3] was 1.7 L/kg. In data set [4], this molecule yielded a bioavailability of 32%.

Turning to `Cc1ccc2c(-c3nnc(SCCCN4CCc5cc6onc(C)c6cc5CC4)n3C)cccc2n1`, in data set [1], the clearance was 40 mL/min/kg. This molecule also gave a half-life in data set [2] of 1.3 h. Moreover, the Vd in data set [3] was found to be 3.3 L/kg. Moreover, in data set [4], the bioavailability is 22%. Also, in data set [5], the Kp at 1 h turned out to be 7.7.

Molecule `CCc1nc2cc3c(cc2o1)CCN(CCCSc1nnc(-c2ccc(C(F)(F)F)cc2)n1C)CC3` registered a clearance in data set [1] of 48 mL/min/kg. The same molecule gave a half-life in data set [2] of 1.1 h. For the same molecule, the Vd in data set [3] was 3.4 L/kg. Besides, the bioavailability in data set [4] turned out to be 17%. Also, the Kp at 1 h in data set [5] came to 3.1.

In data set [1], `Cc1ccc2c(-c3nnc(SCCCN4CCc5cc6nc(C(C)(C)C)oc6cc5CC4)n3C)cccc2n1` had a clearance of 137 mL/min/kg.
